# Experimental data: BindingDB's records for doi:10.1016/j.bmcl.2004.04.065 (Eli Lilly, 2004)
# Biological target: TGF-beta receptor type-1
# Assay: Inhibitory activity against TGF-beta type I receptor
row,SMILES,IC50
1,"Fc1ccc(-c2nn3c(c2-c2ccnc4ccccc24)CCC3)nc1 [4-[2-(5-Fluoro-pyridin-2-yl)-5,6-dihydro-4H-pyrrolo[1,2-b]pyrazol-3-yl]-quinoline]",151 nM
2,"CCc1cccc(-c2nn3c(c2-c2ccnc4ccccc24)CCC3)n1 [4-[2-(6-Ethyl-pyridin-2-yl)-5,6-dihydro-4H-pyrrolo[1,2-b]pyrazol-3-yl]-quinoline]",71 nM
3,"Cc1cccc(-c2nn3c(c2-c2ccnc4cc(Cl)ccc24)CCC3)n1 [7-chloro-4-(2-(6-methylpyridin-2-yl)-5,6-dihydro-4H-pyrrolo[1,2-b]pyrazol-3-yl)quinoline]",48 nM

# Further lines, results first:
row,IC50,SMILES
1,104 nM,"c1ccc(-c2nn3c(c2-c2ccnc4ccccc24)CCC3)nc1 [4-(2-(pyridin-2-yl)-5,6-dihydro-4H-pyrrolo[1,2-b]pyrazol-3-yl)quinoline]"
2,9290 nM,"CCS(=O)(=O)c1ccc2c(-c3c(-c4ccccn4)nn4c3CCC4)ccnc2c1 [7-Ethanesulfonyl-4-(2-pyridin-2-yl-5,6-dihydro-4H-pyrrolo[1,2-b]pyrazol-3-yl)-quinoline]"
3,110 nM,"CCSc1ccc2c(-c3c(-c4ccccn4)nn4c3CCC4)ccnc2c1 [7-Ethylsulfanyl-4-(2-pyridin-2-yl-5,6-dihydro-4H-pyrrolo[1,2-b]pyrazol-3-yl)-quinoline]"
